Assay results from article PMC5118696, “Identification of inhibitors that dually target the new permeability pathway and dihydroorotate dehydrogenase in the blood stage of Plasmodium falciparum” (Scientific Reports, 2016).
Read-outs that look alike come from different tables or passages of the source.

What was measured:
[1] = test system: Hyp1-NLuc Plasmodium falciparum-infected erythrocytes (new permeability pathway, NPP); assay: microbe, parasite or virus in culture; conditions: Erythrocyte, 0.33 h, read-out: Mean RLU at 28 min (As % of DMSO control)
[2] = test system: Hyp1-NLuc Plasmodium falciparum-infected erythrocytes (new permeability pathway, NPP); assay: microbe, parasite or virus in culture; conditions: Erythrocyte, 0.33 h, read-out: % of control remaining
[3] = target: T1, PfDHODH (dihydroorotate dehydrogenase) (Plasmodium falciparum, UniProt Q08210); assay: DCIP reduction enzyme assay with recombinant PfDHODH; IC50 extrapolated, inhibition did not reach […]; format: biochemical
T1 construct: gene PFF0160c; amino acids 169–569
T1 sequence (Q08210 169-569): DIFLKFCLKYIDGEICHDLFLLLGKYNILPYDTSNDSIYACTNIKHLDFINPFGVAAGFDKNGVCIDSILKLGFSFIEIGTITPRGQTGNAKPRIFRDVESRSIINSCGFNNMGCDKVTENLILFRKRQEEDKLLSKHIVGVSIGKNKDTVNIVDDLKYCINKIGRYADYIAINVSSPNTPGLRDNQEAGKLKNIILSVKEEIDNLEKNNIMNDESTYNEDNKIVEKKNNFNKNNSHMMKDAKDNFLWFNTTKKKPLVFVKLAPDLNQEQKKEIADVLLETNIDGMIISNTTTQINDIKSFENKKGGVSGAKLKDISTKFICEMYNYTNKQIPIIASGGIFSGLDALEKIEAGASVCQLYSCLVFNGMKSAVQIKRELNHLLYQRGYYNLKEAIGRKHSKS

SMILES	activity at 2 µM [1] [%]	activity at 2 µM [2] [%]	IC50 [3] [µM]
Cc1ccc(CSCc2ccc(C(=O)NC3CC3)o2)cc1 [MMV007571]	22	26	~158
CC1CCCCN1CCCNC(=O)c1ccc2c(c1)sc1nc(-c3ccc(F)cc3)cn12 (centres unmarked) [MMV000634]	94.7	67.5	–
O=C(Nc1cccc(-c2nc3ccccc3[nH]2)c1)c1cccc(NC(=O)c2ccco2)c1 [MMV665883]	107	102	–
CCCC(c1nnnn1C1CCCCC1)N1CCN(C(=O)c2ccco2)CC1 (centres unmarked) [MMV666093]	104	113	–
Cc1ccc2cc3c(N)c4c(C)ccc(C)c4nc3nc2c1 [MMV666079]	96	104	–
Cc1cc(Nc2cccc(F)c2)nc(NCc2ccccc2)n1 [MMV006319]	102	104	–
O=C(Nc1ccccc1O)c1ccc(-c2ccc(Cl)cc2Cl)o1 [MMV665948]	105	120	–
CCOC(=O)c1cn(CC)c2cc(N(C)CCc3ccc(OC)c(OC)c3)c(F)cc2c1=O [MMV665977]	106	87.8	–
C=C(C)CCC(C)N1CCC(N2CCC(C(=O)NCCc3ccccc3)CC2)CC1 (centres unmarked) [MMV666110]	108	116	–
O=C(Nc1ccc(Cl)c(Cl)c1)Nc1ccc(Cl)c(Cl)c1 [MMV665852]	117	125	–
COc1ccc(C(O)(CCC(C)C)C(CN2CCOCC2)c2ccc(Cl)cc2)cc1 (centres unmarked) [MMV000617]	116	131	–
CSc1ccccc1C(=O)Nc1nc(-c2ccccn2)cs1 [MMV001246]	112	106	–
CN(N=O)C1=C(NC2CCCCC2)C(=O)c2ccccc2C1=O [MMV667492]	103	90.8	–
COc1ccc(CCN2CCC(CN(C)Cc3cnn(-c4ccccc4)c3)CC2)cc1 [MMV666069]	102	105	–
COc1cccc(NC(=O)[C@H](C(C)C)n2c(=O)[nH]c3ccccc3c2=O)c1 [MMV665878]	102	101	–
COc1cc2c(cc1OC)C1=NNC(=O)C1=NC(C)(C)C2 [MMV084940]	101	101	–
COc1ccc(-c2nc(N3CCN(C(=O)C4CCCCC4)CC3)c3c4c(sc3n2)CCCC4)cc1 [MMV396594]	88.9	87.1	–
COc1cc(C(=O)Nc2ccc(-c3nc4ccccc4[nH]3)cc2)cc(OC)c1OC [MMV665898]	108	103	–
COc1cccc(O)c1CN1CCC2(CCCN(Cc3ccc(F)cc3)C2)C1 (centres unmarked) [MMV666061]	111	126	–
Cc1ccc(-c2cc3c(SCC(=O)Nc4cc(C(F)(F)F)ccc4Cl)nccn3n2)cc1 [MMV396680]	106	101	–
COc1ccc(C(=O)NC(c2ccc(Cl)cc2Cl)c2cc(Cl)c3cccnc3c2O)cc1 (centres unmarked) [MMV666054]	101	106	–
CCOC(=O)C1=C(C)N=c2sc(=Cc3ccccc3O)c(=O)n2C1c1ccc(OC)c2ccccc12 (centres unmarked) [MMV666604]	110	117	–
O=C(Nc1ccc(CN2CCOCC2)cc1)c1ccc(-c2ccc(Br)cc2)o1 [MMV665901]	99.8	105	–
CCOc1ccc(CCNC(=O)c2cccs2)cc1OCC [MMV007978]	112	114	–
CCc1c(C)c(=N)c2ccccc2n1C [MMV006278]	98.8	99.6	–
COc1ccc(C(=O)Nc2nonc2-c2ccc(OC)c(OC)c2)cc1Cl [MMV011567]	103	103	–
CN(C)c1ccc(N=Cc2ccc(N3CCOCC3)cc2)cc1 [MMV073843]	104	104	–
N#Cc1nc(Cc2cccc3ccccc23)oc1N1CCN(C(c2ccccc2)c2ccccc2)CC1 [MMV396726]	99.9	99.5	–
CCCCCCc1cc2cc(-c3csc(C=Cc4ccccc4)n3)c(=O)oc2cc1O [MMV666692]	102	99.2	–
